Results reported in article PMC4958397, “Synthesis, antibacterial and antiproliferative potential of some new 1-pyridinecarbonyl-4-substituted thiosemicarbazide derivatives” (Medicinal Chemistry Research, 2016).
Values after ≈ are worked out from the molar mass of the structure shown. Read-outs that look alike come from different tables or passages of the source.

Tests used:
Experiment in all cases: Cell proliferation MTT assay
Format in all cases: cell-based
[1] = tested on: MCF-7 (human breast adenocarcinoma); conditions: MCF7, 96 h, read-out: IC50, antiproliferative activity, MCF-7
Procedure: (§1) Normal human skin fibroblasts (BJ), human hepatocellular carcinoma (HepG2) and human breast adenocarcinoma (MCF-7) were obtained from American Type Culture Collection (ATCC, England, UK). The cells were cultured in Eagle’s minimum essential medium (EMEM, ATCC) supplemented with 10 % fetal bovine serum (FBS, PAA Laboratories), 100 U/mL penicillin and 100 μg/mL streptomycin (Sigma-Aldrich). In the case of the MCF-7 cell line, the culture medium was additionally supplemented with 0.01 μg/mL of human recombinant insulin (Sigma-Aldrich). The cells were grown in 75-cm^2 flasks and maintained at 37 °C in a humidified atmosphere of 5 % CO2 and 95 % air.
(§2) In order to evaluate cell proliferation, the cells were seeded in flat-bottom 96-well plates in 100 μL of a complete growth medium at a concentration of 2 × 10^3 cells/well (BJ), 1.5 × 10^4 cells/well (HepG2) and 2.5 × 10^4 cells/well (MCF-7) and incubated for 24 h at 37 °C in a humidified atmosphere of 5 % CO2. Before drug exposure, the synthesized compounds (1–10) were dissolved in DMSO and then diluted in a complete culture medium supplemented with 10 % FBS. Subsequently, the growth medium was gently removed and the cells were exposed to 100 μL of serial dilutions of the investigated compounds at concentrations ranging from 0.05 to 200 μg/mL. Untreated cells were used as negative controls, and different concentrations of DMSO were used as the solvent control. After 96-h incubation at 37 °C in a humidified atmosphere of 5 % CO2, cell proliferation was assessed using the MTT test as described previously (Cytotoxicity assay). The MTT assay was repeated in three independent experiments in quadruplicates. The half-maximal inhibitory concentration (IC50) was defined as the compound concentration (μg/mL) required to inhibit cell proliferation to 50 %.
(§3) The results of the in vitro cell culture experiments were presented as mean values ± standard deviation (SD) or as mean values ± standard error of the mean (SEM). The data were analyzed using one-way ANOVA test followed by Dunnett’s test. Differences were considered as significant with p < 0.01 (GraphPad Prism 5, Version 5.04 Software). The values of CC50 and IC50 were calculated via 4-parameter nonlinear regression analyses using GraphPad Prism 5, version 5.04.

[2] = tested on: BJ (normal human skin fibroblasts); conditions: 96 h; for IC50: Homo sapiens, Skin fibroblast, MTT, mean ± SD, read-out: IC50, antiproliferative activity, BJ
Procedure: as §1, §2, §3

[3] = tested on: HepG2 (human hepatocellular carcinoma); conditions: 96 h; for IC50: Homo sapiens, HepG2, MTT, read-out: IC50, antiproliferative activity, HepG2
Procedure: as §1, §2, §3

[4] = 10 μg/mL, proliferation reduced to

Structure (SMILES)	IC50 ([1]; mean ± SD)	cell proliferation compared to the control, BJ [2, 4]	IC50 [2]	cell proliferation compared to the control, HepG2 [3, 4]	IC50 ([3]; mean ± SD)	IC50 ([1]; same value in µM)	IC50 ([3]; same value in µM)
O=C(NNC(=S)Nc1ccccc1Cl)c1ccccn1 [Compound 2, 4-(2-Chlorophenyl)-1-(pyridin-2-yl)carbonylthiosemicarbazide]	14.8 ± 1.03 µg/mL	32%	3.06 ± 0.46 µg/mL (≈ 9.97 µM)	18.9%	2.71 ± 0.23 µg/mL	–	–
O=C(NNC(=S)Nc1ccc(Cl)cc1Cl)c1ccccn1 [Compound 4, 4-(2,4-Dichlorophenyl)-1-(pyridin-2-yl)carbonylthiosemicarbazide]	8.63 µg/mL	–	1.86 ± 0.44 µg/mL (≈ 5.45 µM)	–	2.09 µg/mL	25.3 µM	6.12 µM
